The values below come from patent US9464064B2, “HCV helicase inhibitors and methods of use thereof” (University of Kansas, priority 2011, dated 2016).

SMILES strings stand for the structures.

For one assay, the target named is T1, HCV NS3 helicase NS3h_1b(con1) (Hepatitis C virus genotype 1b, UniProt Q9WMX2).
T1 construct: truncated C-terminally His-tagged NS3 proteins lacking the N-terminal protease, called NS3h; His-tag (C); made in house
T1 sequence (Q9WMX2 1192-1657): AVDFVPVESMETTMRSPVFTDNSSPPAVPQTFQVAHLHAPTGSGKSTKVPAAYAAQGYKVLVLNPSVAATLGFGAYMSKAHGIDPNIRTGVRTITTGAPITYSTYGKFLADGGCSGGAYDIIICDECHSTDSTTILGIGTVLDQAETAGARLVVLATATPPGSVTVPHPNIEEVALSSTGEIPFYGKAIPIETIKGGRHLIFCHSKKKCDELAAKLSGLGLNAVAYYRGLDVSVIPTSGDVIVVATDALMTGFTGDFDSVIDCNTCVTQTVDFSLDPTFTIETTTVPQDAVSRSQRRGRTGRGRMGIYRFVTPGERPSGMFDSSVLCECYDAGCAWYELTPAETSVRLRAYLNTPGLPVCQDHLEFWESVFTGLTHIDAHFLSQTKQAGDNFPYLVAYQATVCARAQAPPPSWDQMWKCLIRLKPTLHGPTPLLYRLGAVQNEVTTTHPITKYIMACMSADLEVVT
Nature of the assay: MBHA screen of NCI mechanistic set library at 20 μM (percent inhibition, compound interference). The following applies: compounds at 20 μM, MBHA with DNA substrate; assay interference calculated with Equation 2. Format: biochemical. The method in brief: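 Molecular beacon-based DNA unwinding assay; compounds screened at 20 μM in triplicate, with DMSO-only negative and 500 nM dT20 positive controls. Fluorescence (ex 643/em 670 nm) was read before and 30 min after adding ATP to 1 mM. Percent inhibition came from the change relative to DMSO controls; interference from pre-ATP fluorescence versus DMSO controls.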
As for `Cc1c(C(=O)C/C(=N/NC(=O)CC#N)C(N)=O)[n+](=O)c2ccccc2n1[O-]` [Compound 635542], the “Int.* (Ratio) (Interference)” value is reported as 0.91 Ratio.
As to `Cc1ccccc1OCC(COC(=O)Nc1ccccc1)OC(=O)Nc1ccccc1` (stereo not drawn) [Compound 635824], the “Int.* (Ratio) (Interference)” value is recorded as 0.91 Ratio.
`COC(=O)C(=O)C(C(=O)Nc1cccc(C)c1C)C1Sc2ccccc2NC1=O` (stereo not drawn) [Compound 635833]: the “Int.* (Ratio) (Interference)” value is reported as 0.93 Ratio.
Turning to `CC(C)(C)c1ccc(OC2CCO2)cc1` (stereo not drawn) [Compound 635975], the “Int.* (Ratio) (Interference)” value is reported as 0.97 Ratio.
For `CC1CCCC(C(=O)/C(=C/c2cccc(Cl)c2)C(=O)C(=O)O)C1` (stereo not drawn) [Compound 636084], the “Int.* (Ratio) (Interference)” value is listed as 1.01 Ratio.
`Cc1ccccc1NC(=O)C(=O)C(C#N)c1ccccc1C` (stereo not drawn) [Compound 636132]: the “Int.* (Ratio) (Interference)” value is listed as 0.90 Ratio.
Regarding `CCOc1ccccc1NC(=O)CC1Sc2ccccc2NC1=O` (stereo not drawn) [Compound 637680], the “Int.* (Ratio) (Interference)” value is listed as 0.91 Ratio.
`CC(=O)SC(SC(C)=O)SC(C)=O` [Compound 637833]: the “Int.* (Ratio) (Interference)” value was 0.80 Ratio.
As for `N#CCCN(c1ccc(C=O)cc1)S(=O)(=O)c1ccccc1` [Compound 637914], the “Int.* (Ratio) (Interference)” value is given as 1.01 Ratio.
The same measure, in the same setting: the same measure for `N#CCCN(CCC#N)c1ccc(/C=C2/N=C(c3cc([N+](=O)[O-])ccc3Cl)OC2=O)cc1` [Compound 637916]: 0.97 Ratio.
For `CCN(CC)CCNc1ccc2nc(C)n3c4ccc(OC)cc4c(=O)c1c23.Cl` [Compound 637993], the “Int.* (Ratio) (Interference)” value was 0.77 Ratio.
Same read-out and setting: the figure for `O=S(=O)(O)c1cc(N=Nc2cc(S(=O)(=O)O)c3cccnc3c2O)ccc1/C=C/c1ccc(N=Nc2cc(S(=O)(=O)O)c3cccnc3c2O)cc1S(=O)(=O)O` [Compound 638352] is 0.89 Ratio; for `COc1ccc2ccccc2c1C1OC(=O)c2ccccc21` (stereo not drawn) [Compound 638504] it is 0.90 Ratio.

The assay is the same for the next values; noted with them: compounds at 20 μM, MBHA with DNA substrate; calculated from Equation 1.
For the compound `Cc1c(C(=O)C/C(=N/NC(=O)CC#N)C(N)=O)[n+](=O)c2ccccc2n1[O-]` [Compound 635542], the “Inh. (%) (Inhibition)” value is on record as −12.7%.
The same measure, in the same setting: the figure for `Cc1ccccc1OCC(COC(=O)Nc1ccccc1)OC(=O)Nc1ccccc1` (stereo not drawn) [Compound 635824] is 13.5%; for `COC(=O)C(=O)C(C(=O)Nc1cccc(C)c1C)C1Sc2ccccc2NC1=O` (stereo not drawn) [Compound 635833] it is −7.3%.
Regarding `CC(C)(C)c1ccc(OC2CCO2)cc1` (stereo not drawn) [Compound 635975], the “Inh. (%) (Inhibition)” value was −2.4%.
On the same count and under the same terms, the figure for `CC1CCCC(C(=O)/C(=C/c2cccc(Cl)c2)C(=O)C(=O)O)C1` (stereo not drawn) [Compound 636084] is −8.2%; for `Cc1ccccc1NC(=O)C(=O)C(C#N)c1ccccc1C` (stereo not drawn) [Compound 636132] it is 4.4%; for `CCOc1ccccc1NC(=O)CC1Sc2ccccc2NC1=O` (stereo not drawn) [Compound 637680] it is 21.2%.
Take `CC(=O)SC(SC(C)=O)SC(C)=O` [Compound 637833]: the “Inh. (%) (Inhibition)” value is recorded as −17.2%.
With `N#CCCN(c1ccc(C=O)cc1)S(=O)(=O)c1ccccc1` [Compound 637914], the “Inh. (%) (Inhibition)” value was −11.0%.
For `N#CCCN(CCC#N)c1ccc(/C=C2/N=C(c3cc([N+](=O)[O-])ccc3Cl)OC2=O)cc1` [Compound 637916], the “Inh. (%) (Inhibition)” value is 1.1%.
Regarding `CCN(CC)CCNc1ccc2nc(C)n3c4ccc(OC)cc4c(=O)c1c23.Cl` [Compound 637993], the “Inh. (%) (Inhibition)” value is 37.7%.
Turning to `O=S(=O)(O)c1cc(N=Nc2cc(S(=O)(=O)O)c3cccnc3c2O)ccc1/C=C/c1ccc(N=Nc2cc(S(=O)(=O)O)c3cccnc3c2O)cc1S(=O)(=O)O` [Compound 638352], the “Inh. (%) (Inhibition)” value is on record as 56.2%.
Regarding `COc1ccc2ccccc2c1C1OC(=O)c2ccccc21` (stereo not drawn) [Compound 638504], the “Inh. (%) (Inhibition)” value was −2.7%.

Staying with this assay, now noted: compounds at 20 μM, MBHA with a DNA substrate; calculated from Equation 1.
On to `Cc1c(C(=O)C/C(=N\O)C(=O)Nc2cc(Cl)c(Cl)cc2Cl)[n+](=O)c2ccccc2n1[O-]` [Compound 635544], for which the “Inh. (%) (Inhibition)” value was −21.9%.
For the compound `O=[N+]([O-])c1cc(-c2nc(=S)[nH][nH]2)ccc1O` [Compound 635563], the “Inh. (%) (Inhibition)” value is reported as −6.8%.
In the case of `CC1=NC(C(C)C)C(=O)O1` (stereo not drawn) [Compound 635968], the “Inh. (%) (Inhibition)” value is 9.0%.
For the compound `O=C(/C=C/c1c(O)ccc2ccccc12)c1cccc(O)c1` [Compound 636786], the “Inh. (%) (Inhibition)” value is listed as 8.8%.
With `COc1ccc(C2=Nc3ccccc3SC(C)C2)cc1` (stereo not drawn) [Compound 636817], the “Inh. (%) (Inhibition)” value is listed as −30.3%.
For `NC(=Nc1nc(-c2ccccn2)cc2ccccc12)c1ccccn1` [Compound 637578], the “Inh. (%) (Inhibition)” value is given as 7.9%.
For `O=C1C=C(Nc2cccnc2)c2ccccc2C1=O` [Compound 637729], the “Inh. (%) (Inhibition)” value is on record as −3.8%.
As to `O=C1C=C(NCCc2ccccc2)c2ccccc2C1=O` [Compound 637731], the “Inh. (%) (Inhibition)” value is listed as −5.3%.

The same assay, now with this note: compounds at 20 μM; assay interference calculated with Equation 2 (fluorescence vs DMSO-only controls before ATP).
Consider `Cc1c(C(=O)C/C(=N\O)C(=O)Nc2cc(Cl)c(Cl)cc2Cl)[n+](=O)c2ccccc2n1[O-]` [Compound 635544], for which the “Int.* (Ratio) (Interference)” value is listed as 0.82 Ratio.
Take `O=[N+]([O-])c1cc(-c2nc(=S)[nH][nH]2)ccc1O` [Compound 635563]: the “Int.* (Ratio) (Interference)” value is listed as 0.92 Ratio.
Turning to `CC1=NC(C(C)C)C(=O)O1` (stereo not drawn) [Compound 635968], the “Int.* (Ratio) (Interference)” value is given as 0.97 Ratio.
Regarding `O=C(/C=C/c1c(O)ccc2ccccc12)c1cccc(O)c1` [Compound 636786], the “Int.* (Ratio) (Interference)” value is recorded as 0.91 Ratio.
On to `COc1ccc(C2=Nc3ccccc3SC(C)C2)cc1` (stereo not drawn) [Compound 636817], for which the “Int.* (Ratio) (Interference)” value was 1.07 Ratio.
Turning to `NC(=Nc1nc(-c2ccccn2)cc2ccccc12)c1ccccn1` [Compound 637578], the “Int.* (Ratio) (Interference)” value is reported as 0.97 Ratio.
Take `O=C1C=C(Nc2cccnc2)c2ccccc2C1=O` [Compound 637729]: the “Int.* (Ratio) (Interference)” value is 0.97 Ratio.
For `O=C1C=C(NCCc2ccccc2)c2ccccc2C1=O` [Compound 637731], the “Int.* (Ratio) (Interference)” value is given as 1.07 Ratio.
